ChEMBL document CHEMBL1938343, “Lead optimisation of selective non-zinc binding inhibitors of MMP13. Part 2” (Bioorg Med Chem Lett, 2012)

Key:
[1] = Volume of distribution at steady state in rat at 2 mg/kg, iv; type: ADME, organism-based; design: dose 2 mg/kg, route intravenous; conditions: in vivo, read-out: Vdss
[2] = biological target: T1, A disintegrin and metalloproteinase with thrombospondin motifs 1 (Homo sapiens) (UniProt Q9UHI8); test: Inhibition of ADAM-TS1 dimethoxyfluorescein-Ser-Pro-Leu-Ala-Gln-Ala- Val-Arg-ser-Ser-Arg-Cys-fluorescein
T1 sequence (whole entry): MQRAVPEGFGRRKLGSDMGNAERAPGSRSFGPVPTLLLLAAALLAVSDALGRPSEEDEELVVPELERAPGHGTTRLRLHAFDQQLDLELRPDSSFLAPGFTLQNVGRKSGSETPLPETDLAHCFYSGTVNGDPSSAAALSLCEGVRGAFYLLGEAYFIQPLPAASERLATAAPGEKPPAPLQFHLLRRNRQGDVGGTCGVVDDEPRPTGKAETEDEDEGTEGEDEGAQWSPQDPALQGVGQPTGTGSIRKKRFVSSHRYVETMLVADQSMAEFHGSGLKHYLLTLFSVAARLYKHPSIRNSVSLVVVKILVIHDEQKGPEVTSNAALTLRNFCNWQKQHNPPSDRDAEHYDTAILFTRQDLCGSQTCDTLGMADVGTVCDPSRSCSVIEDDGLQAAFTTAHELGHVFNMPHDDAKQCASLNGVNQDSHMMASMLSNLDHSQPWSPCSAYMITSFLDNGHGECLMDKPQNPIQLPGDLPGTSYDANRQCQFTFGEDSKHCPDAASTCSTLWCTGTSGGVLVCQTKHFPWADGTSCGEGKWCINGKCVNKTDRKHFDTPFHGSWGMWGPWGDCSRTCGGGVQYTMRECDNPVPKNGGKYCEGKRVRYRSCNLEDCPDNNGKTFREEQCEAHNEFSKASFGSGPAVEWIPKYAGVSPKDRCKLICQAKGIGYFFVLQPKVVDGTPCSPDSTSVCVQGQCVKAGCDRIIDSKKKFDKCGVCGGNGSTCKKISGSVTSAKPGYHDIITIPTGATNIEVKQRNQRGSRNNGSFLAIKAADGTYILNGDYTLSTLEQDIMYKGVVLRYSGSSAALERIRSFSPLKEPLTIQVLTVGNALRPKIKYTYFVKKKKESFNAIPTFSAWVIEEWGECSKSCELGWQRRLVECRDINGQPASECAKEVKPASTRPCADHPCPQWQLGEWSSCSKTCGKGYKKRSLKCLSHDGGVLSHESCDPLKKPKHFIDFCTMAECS

[3] = biological target: T2, A disintegrin and metalloproteinase with thrombospondin motifs 4 (Homo sapiens) (UniProt O75173); test: Inhibition of ADAM-TS4 using dimethoxyfluorescein-Ser-Pro-Leu-Ala-Gln-Ala- Val-Arg-ser-Ser-Arg-Cys-fluorescein as substrate
T2 sequence (whole entry): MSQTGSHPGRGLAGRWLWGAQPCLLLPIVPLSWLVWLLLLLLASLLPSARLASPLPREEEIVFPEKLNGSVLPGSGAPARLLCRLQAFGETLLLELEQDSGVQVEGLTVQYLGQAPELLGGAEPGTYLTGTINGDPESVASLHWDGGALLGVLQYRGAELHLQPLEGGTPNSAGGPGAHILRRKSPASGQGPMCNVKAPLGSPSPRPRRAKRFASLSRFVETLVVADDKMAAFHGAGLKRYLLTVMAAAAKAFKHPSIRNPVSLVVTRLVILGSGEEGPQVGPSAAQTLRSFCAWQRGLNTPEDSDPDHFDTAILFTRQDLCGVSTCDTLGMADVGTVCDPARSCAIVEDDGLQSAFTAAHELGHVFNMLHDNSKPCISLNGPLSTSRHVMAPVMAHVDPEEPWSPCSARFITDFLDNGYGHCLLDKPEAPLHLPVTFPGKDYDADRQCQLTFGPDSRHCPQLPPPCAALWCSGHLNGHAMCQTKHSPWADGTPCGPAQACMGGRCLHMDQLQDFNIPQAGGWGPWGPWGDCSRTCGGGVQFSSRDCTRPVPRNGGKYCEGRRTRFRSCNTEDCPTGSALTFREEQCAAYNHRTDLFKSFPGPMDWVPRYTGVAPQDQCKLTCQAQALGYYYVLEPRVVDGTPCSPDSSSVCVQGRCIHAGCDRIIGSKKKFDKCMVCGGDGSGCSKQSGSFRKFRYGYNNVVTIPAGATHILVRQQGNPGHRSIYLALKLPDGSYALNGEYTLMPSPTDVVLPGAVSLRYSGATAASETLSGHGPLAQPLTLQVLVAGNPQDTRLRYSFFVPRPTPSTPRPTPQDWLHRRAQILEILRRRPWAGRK

[4] = biological target: T3, A disintegrin and metalloproteinase with thrombospondin motifs 5 (Homo sapiens) (UniProt Q9UNA0); test: Inhibition of ADAM-TS5 using dimethoxyfluorescein-Ser-Pro-Leu-Ala-Gln-Ala- Val-Arg-ser-Ser-Arg-Cys-fluorescein as substrate
T3 sequence (whole entry): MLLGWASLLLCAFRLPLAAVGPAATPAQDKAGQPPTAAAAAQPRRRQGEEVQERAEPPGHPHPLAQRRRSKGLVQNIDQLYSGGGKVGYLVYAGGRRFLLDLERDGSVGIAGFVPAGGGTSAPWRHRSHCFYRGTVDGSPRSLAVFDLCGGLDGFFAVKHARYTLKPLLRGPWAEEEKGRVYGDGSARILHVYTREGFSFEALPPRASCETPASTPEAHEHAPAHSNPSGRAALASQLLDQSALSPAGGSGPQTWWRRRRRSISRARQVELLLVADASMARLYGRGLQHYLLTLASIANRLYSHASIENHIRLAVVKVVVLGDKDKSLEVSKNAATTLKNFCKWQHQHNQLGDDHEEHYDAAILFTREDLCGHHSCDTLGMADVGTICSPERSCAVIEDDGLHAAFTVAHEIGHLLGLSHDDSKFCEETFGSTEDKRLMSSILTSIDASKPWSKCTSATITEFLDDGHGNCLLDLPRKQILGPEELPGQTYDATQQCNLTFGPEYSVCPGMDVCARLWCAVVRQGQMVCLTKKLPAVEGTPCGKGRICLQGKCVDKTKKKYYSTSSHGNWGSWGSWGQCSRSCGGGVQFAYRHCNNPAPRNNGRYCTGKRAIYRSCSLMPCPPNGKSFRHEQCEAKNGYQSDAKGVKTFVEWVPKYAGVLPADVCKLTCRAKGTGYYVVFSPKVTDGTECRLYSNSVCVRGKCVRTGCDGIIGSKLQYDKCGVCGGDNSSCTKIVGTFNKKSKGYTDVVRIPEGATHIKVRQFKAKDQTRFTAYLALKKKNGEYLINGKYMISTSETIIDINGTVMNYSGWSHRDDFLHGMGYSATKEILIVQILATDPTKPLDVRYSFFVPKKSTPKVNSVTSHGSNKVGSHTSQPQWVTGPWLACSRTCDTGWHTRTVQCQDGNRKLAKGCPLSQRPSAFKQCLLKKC

[5] = Cytotoxicity in mouse spleen macrophages assessed as phospholipidosis; conditions: Macrophage
[6] = Oral bioavailability in rat; type: ADME, organism-based; conditions: in vivo
[7] = Intrinsic clearance in human hepatocytes assessed per 10^6 cells; type: ADME, cell-based, Hepatocyte; conditions: read-out: CLH
[8] = Intrinsic clearance in human microsomes; type: ADME, Microsome

CN1CCC(NC(=O)c2ccc(Oc3ccc(C#C[C@]4(O)CN5CCC4CC5)cc3)cc2)CC1
Vd [1]: 12.6 L/kg
INH [2]: > 100 µM
INH [3]: > 10 µM
INH [4]: > 10 µM
EC50 [5]: 8 µM
bioavailability [6]: 2%
hepatocyte CLint [7]: < 2 µL/min/1e6 cells
microsomal CLint [8]: 2.6 µL/min/mg
